Data on 1 compound can be found in US11702440B2, “Pharmaceutical polymorphs of Molnupiravir” (OPTIMUS DRUGS (P) LTD, priority 2021, dated 2023).

The nature of series [1]: First-in-human phase 1 single and multiple ascending dose pharmacokinetics in healthy volunteers. In kind it is in vivo. The method, then: Single and multiple doses of Molnupiravir were evaluated in this first-in-human, phase 1, […] randomized, double-blind, placebo-controlled study in healthy volunteers, which included […] evaluation of the effect of food on pharmacokinetics. Eligible subjects were randomized in a 3:1 ratio to either study drug or placebo in the single- and multiple-ascending-dose parts of the study. Each cohort comprised 8 subjects, with single oral doses of 50 to 1600 mg administered in the single-ascending-dose part and twice-daily (BID) […] doses of 50 to 800 mg administered for 5.5 days in the multiple-ascending-dose part. Subjects were followed for 14 days following completion of dosing for assessments of safety, tolerability, and pharmacokinetics. Subjects in the food-effect evaluation were randomized in a 1:1 ratio to either 200 mg Molnupiravir in the fed state followed by 200 mg Molnupiravir in the fasted state, or vice versa, with a 14-day washout period between doses. A capsule formulation was used in all parts of the study, with the exception of single ascending doses ≤800 mg, where an oral solution formulation was used.

The next series deals with SARS-CoV-2. The conditions noted are these: found in March 2020; cited from earlier work.
The test system of series [2] is coronaviruses including SARS, MERS and SARS-CoV-2. The conditions noted are these: cited from earlier work.
Series [3] in a line: In-vitro dissolution study of Molnupiravir Capsules. In kind it is physicochemical. The note with it: 900 ml 0.1 N HCl, paddle 50 RPM. As to the method:
Dissolution study of test product Molnupiravir Capsules 200 mg, 400 mg 800 mg was performed in order to understand % dissolution in release dissolution media. The dissolution media used for the test is 900 ml of 0.1 NHCl at 50 RPM with paddle.

Structures are written as SMILES.

As to `CC(C)C(=O)OC[C@H]1O[C@@H](n2ccc(NO)nc2=O)[C@H](O)[C@@H]1O` [Molnupiravir], the “mean AUCinf increase with dose” value in series [1] (Day 1, power model, oral, lower bound of 90% CI slightly above unity) is reported as “approximately dose-proportional”. Moreover, the “mean Cmax increase with dose” value was “approximately dose-proportional” in series [1] (Day 1, power model, oral, upper bound of 90% CI slightly below unity) and “dose proportional” in series [1] (Day 6, BID oral dosing, 90% CI containing unity). Further, in series [1] (Day 6, BID oral dosing, lower bound of 90% CI slightly above unity), the “mean AUCτ increase with dose” value was “approximately dose-proportional”. The “activity against SARS-CoV-2” value in the series with SARS-CoV-2 is reported as “active”. Besides, the activity against coronaviruses result in series [2] is recorded as “Activity has also been demonstrated”. Besides, the “% Drug release of Molnupiravir” value in series [3] (200 mg capsules, 5 min) is listed as 85%; in series [3] (200 mg capsules, 10 min), 97%; in series [3] (200 mg capsules, 15 min) it was 97%; in series [3] (200 mg capsules, 20 min) it was 102%; in series [3] (200 mg capsules, 30 min) it was 103%; in series [3] (200 mg capsules, 45 min), 102%. The “% Drug release of Molnupiravir” value in series [3] (400 mg capsules, 5 min) came to 86%; in series [3] (400 mg capsules, 10 min), 90%; in series [3] (400 mg capsules, 15 min) it was 93%; in series [3] (400 mg capsules, 20 min), 97%; in series [3] (400 mg capsules, 30 min), 97%; in series [3] (400 mg capsules, 45 min) it was 97%. The “% Drug release of Molnupiravir” value in series [3] (800 mg capsules, 5 min) was found to be 84%; in series [3] (800 mg capsules, 10 min), 95%; in series [3] (800 mg capsules, 15 min) it was 97%; in series [3] (800 mg capsules, 20 min), 99%; in series [3] (800 mg capsules, 30 min) it was 101%; in series [3] (800 mg capsules, 45 min), 101%.
